Laboratory results reported in ChEMBL document CHEMBL1158921, “Antitumor agents, 116. Cytotoxic triterpenes from Maytenus diversifolia” (1990).
≈ marks a conversion by molar mass, not a printed value. Calls of active or inactive are those of the source. The rule behind the calls is not given here.

Columns and labels:
Assay type in all cases: functional
A549 = test: Cytotoxicity against human A549 cells; settings: for EC50: read-out: ED50 (the source's name)
KB = test: Cytotoxicity against human KB cells
L1210 = test: Cytotoxicity against mouse L1210 cells
[1] = read-out: ED50 (the source's name)

SMILES: C[C@H]1C(=O)CC[C@@H]2[C@]1(C)CC[C@H]1[C@@]2(C)CC[C@@]2(C)[C@@H]3C[C@](C)(CO)CC[C@]3(CO)CC[C@]12C
- EC50 (A549): 0.64 µg/mL (≈ 1.4 µM)

SMILES: C[C@H]1C(=O)CC[C@@H]2[C@]1(C)CC[C@H]1[C@@]2(C)CC[C@@]2(C)[C@@H]3CC(C)(C)CC[C@]3(C(=O)O)CC[C@]12C
- EC50 (KB; [1]): 3.7 µg/mL (≈ 8.1 µM)
- EC50 (A549): 1.18 µg/mL (≈ 2.58 µM)
- EC50 (L1210; [1]): 2.95 µg/mL (≈ 6.46 µM)

SMILES: C[C@H]1C(=O)CC[C@@H]2[C@]1(C)CC[C@H]1[C@@]2(C)CC[C@@]2(C)[C@@H]3C[C@](C)(C(=O)O)CC[C@]3(C)CC[C@]12C [MAYTENOIC ACID]
- EC50 (A549): 0.21 µg/mL (≈ 0.46 µM)

SMILES: C[C@H]1[C@H](C)CC[C@]2(C(=O)O)CC[C@]3(C)C(=CC[C@@H]4[C@@]5(C)CC[C@H](O)C(C)(C)[C@@H]5CC[C@]43C)[C@H]12
- Activity (KB): Active
- Activity (A549): Active
- Activity (L1210): Active
